From PMC2579271 (Molecular cancer therapeutics, 2008)

How the values were obtained:
Jak2-V617F = Jak2-V617F (Mus musculus, UniProt Q62120, V617F); assay: autophosphorylation; format: cell-based
Jak2 (Jak2-WT) = Jak2 (Jak2-WT) (Mus musculus, UniProt Q62120); assay: autophosphorylation; format: cell-based
Chain of Jak2 (Jak2-WT) (Q62120 whole entry): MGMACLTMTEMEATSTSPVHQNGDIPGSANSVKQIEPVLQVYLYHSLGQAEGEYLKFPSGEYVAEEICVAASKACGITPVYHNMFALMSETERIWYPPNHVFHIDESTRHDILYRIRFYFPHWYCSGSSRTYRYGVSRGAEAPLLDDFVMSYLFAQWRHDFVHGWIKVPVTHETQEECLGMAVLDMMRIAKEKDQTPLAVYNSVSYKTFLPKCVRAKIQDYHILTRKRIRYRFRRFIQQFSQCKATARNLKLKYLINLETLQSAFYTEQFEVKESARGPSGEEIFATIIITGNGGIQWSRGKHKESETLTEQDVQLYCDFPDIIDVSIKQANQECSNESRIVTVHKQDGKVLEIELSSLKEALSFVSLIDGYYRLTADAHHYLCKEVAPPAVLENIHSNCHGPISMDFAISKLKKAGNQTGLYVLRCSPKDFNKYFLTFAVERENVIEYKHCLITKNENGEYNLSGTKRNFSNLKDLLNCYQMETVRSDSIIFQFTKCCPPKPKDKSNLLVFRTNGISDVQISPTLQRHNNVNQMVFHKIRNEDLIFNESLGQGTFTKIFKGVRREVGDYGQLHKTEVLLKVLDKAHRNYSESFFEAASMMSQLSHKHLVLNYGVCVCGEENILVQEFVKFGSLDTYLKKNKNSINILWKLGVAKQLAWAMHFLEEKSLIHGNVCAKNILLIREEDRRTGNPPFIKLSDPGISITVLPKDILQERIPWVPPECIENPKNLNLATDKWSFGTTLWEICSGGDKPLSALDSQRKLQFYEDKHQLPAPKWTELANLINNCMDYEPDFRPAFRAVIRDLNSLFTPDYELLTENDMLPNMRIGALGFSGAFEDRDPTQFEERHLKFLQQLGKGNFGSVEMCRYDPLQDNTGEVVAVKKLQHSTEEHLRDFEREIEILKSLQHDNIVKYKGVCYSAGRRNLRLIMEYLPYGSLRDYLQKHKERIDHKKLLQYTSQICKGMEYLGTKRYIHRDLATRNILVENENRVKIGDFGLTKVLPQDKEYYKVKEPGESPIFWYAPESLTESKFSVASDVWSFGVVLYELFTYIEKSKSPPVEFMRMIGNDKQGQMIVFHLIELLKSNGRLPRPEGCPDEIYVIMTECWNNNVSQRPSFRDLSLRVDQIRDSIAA

Chain of Jak2-V617F (Q62120 whole entry V617F): as the sequence (Q62120 whole entry) above, with V617F counted along it

IC50 (Jak2-V617F): ~28 µM
IC50 (Jak2 (Jak2-WT)): ~15 µM
SMILES: CC(CCc1ccccn1)(CCc1ccccn1)C(=O)c1ccccc1 [Z3, 2-methyl-1-phenyl-4-pyridin-2-yl-2-(2-pyridin-2-ylethyl)butan-1-one]
